Measurements published in publication PMC8284473, “Preliminary Characterization of NP339, a Novel Polyarginine Peptide with Broad Antifungal Activity” (Antimicrobial Agents and Chemotherapy, 2021).
Values after ≈ are worked out from the molar mass of the structure shown. Peptide text beside a SMILES is read from it.

Experiments:
A. fumigatus conidia = assay: Time-kill assay in culture media; format: cell-based, Aspergillus fumigatus; conditions: A. fumigatus conidia (n = 2), inoculum 1 × 10^5 cells/ml, antibiotic medium 3
Procedure: (§1) For Candida spp., the cells were grown for at least 18 to 24 h at 30°C, until visible growth was observed. The cells were then centrifuged and resuspended in sterile distilled H2O and diluted to the 0.5 McFarland standard density using 2× RPMI 1640 medium. The tested antifungals were prepared at twice the required concentration. Then, 1 ml of the inoculum was added to 1 ml of the antifungal solution and incubated at 30°C. Every hour over the course of 8 h, 20 μl of the culture was removed and 10-fold serial dilutions were prepared (from 1 × 10^−1 to 1 × 10^−7). Then, 50 μl of each dilution was plated on SAB agar (Sigma) in triplicate. The plates were incubated at 30°C until colonies were observed on the control plates with vehicle-treated fungi. The colonies were counted, and the percentage killed was determined based on the reduction in the number of CFU/ml in the treated samples compared with the vehicle-treated, untreated controls.
For A. fumigatus, a subculture was grown on a SAB agar (Sigma) slant for 72 h at 35°C until sporulation. A. fumigatus cells were harvested from the slant into 0.15 M NaCl (Fisher Scientific UK, Ltd.), and conidia were isolated by passing through an EASYStrainer cell sieve (70-μm pore; Greiner Bio-One, Gloucester, United Kingdom) The conidial suspension was diluted to 1 × 10^5 CFU/ml in 2× antibiotic medium 3 (Oxoid). For germling analysis, the conidial suspension was incubated for 8 h at 35°C prior to analysis; for conidial experiments, it was used immediately. The experiment was performed as described for Candida spp.

C. auris = assay: Time-kill assay in culture media; format: cell-based, Candida auris; conditions: C. auris (n = 1), inoculum 1 × 10^6 to 5 × 10^6 cells/ml
Procedure: as §1, with “The plates were incubated at 30°C until colonies were observed on the control plates with vehicle-treated fungi.” left out

C. auris DSMZ1092 = format: cell-based, Candida auris; conditions: 30 passages in 0.25× MIC of the same antifungal, passage 0 = 1, average of three independent replicates
Procedure: (§2) Cell growth of all fungi was followed by measuring the optical density at 530 nm (OD530) using the Powerwave XS plate reader (Biotek, Swindon, United Kingdom).
(§3) The fungal inoculum was prepared according to the CLSI standard M27-A3 ([32]). For the analysis, 100 μl of the antifungal stock was added to a 96-well polystyrene plate in triplicate. […] The passaging was repeated 30 times. Every five passages, a full MIC analysis was done, as specified above.

C. albicans = assay: Time-kill assay in culture media; format: cell-based, Candida albicans; conditions: C. albicans (n = 2), inoculum 1 × 10^6 to 5 × 10^6 cells/ml, RPMI 1640, 30°C
Procedure: The tested antifungals were prepared at twice the required concentration. Then, 1 ml of the inoculum was added to 1 ml of the antifungal solution and incubated at 30°C. Every hour over the course of 8 h, 20 μl of the culture was removed and 10-fold serial dilutions were prepared (from 1 × 10^−1 to 1 × 10^−7). Then, 50 μl of each dilution was plated on SAB agar (Sigma) in triplicate. […] The colonies were counted, and the percentage killed was determined based on the reduction in the number of CFU/ml in the treated samples compared with the vehicle-treated, untreated controls.

C. glabrata AM2007/0125 = format: cell-based, Candida glabrata; conditions: 30 passages in 0.25× MIC of the same antifungal, passage 0 = 1, average of three independent replicates
Procedure: as §2, §3

C. albicans AM2003-0182 [1] = assay: Transmission electron microscopy of planktonic cells; format: cell-based, Candida albicans; conditions: 1× MIC, 30 min exposure
Procedure: For the TEM analysis, an overnight culture of C. albicans AM2003-0182 was diluted to a density of 1 × 10^8 cells/ml in 2× RPMI 1640 medium, and the mixture was incubated at 35°C for 1 h. The cells were then washed three times in sterile water and once in 0.01 M sodium phosphate buffer. […] The cells were then fixed in 2.5% (vol/vol) glutaraldehyde and stored at 4°C before analysis. For TEM analysis, the cells were dehydrated in an ethanol and acetone series before being embedded in […] resin, stained with uranyl acetate/lead citrate stains to improve contrast, sectioned to a 90-nm thickness, and mounted onto copper grids for TEM analysis. TEM micrographs were acquired using a JEM-1400 Plus JEOL transmission electron microscope. Microscopy was performed in the Microscopy and Histology Core Facility at the University of Aberdeen (United Kingdom).

[2] = test system: C. tropicalis AM2005/0568; format: cell-based, Candida tropicalis; conditions: 30 passages in 0.25× MIC of the same antifungal, passage 0 = 1, average of three independent replicates
Procedure: as §2, §3

C. albicans AM2003-0182 [3] = assay: MIC (CLSI) of the agents used for TEM; format: cell-based, Candida albicans; conditions: standard CLSI methods
C. albicans SC5314 = format: cell-based, Candida albicans; conditions: 30 passages in 0.25× MIC of the same antifungal, MIC at passage 0 normalized to 1, average of three independent replicates
Procedure: as §2, §3

C. albicans NCTC 3179 = format: cell-based, Candida albicans; conditions: NCTC 3179, 24 h
Procedure: MIC values were determined following the CLSI-approved Reference Method for Broth Dilution Antifungal Susceptibility Testing of Yeasts (approved standard M27-A3) ([32]) in RPMI 1640 medium (Sigma, Dorset, United Kingdom) at 35°C. For all filamentous fungi, the CLSI standard M38-A2 ([33]) was followed, in RPMI 1640 medium at 35°C. Cell growth of all fungi was followed by measuring the optical density at 530 nm (OD530) using the Powerwave XS plate reader (Biotek, Swindon, United Kingdom).

C[C@@H](c1ncncc1F)[C@](O)(Cn1cncn1)c1ccc(F)cc1F [Voriconazole]
Time of kill (time taken to kill 2 logs) (A. fumigatus conidia; final concn 2–8 mg/liter = 16× MIC): 48 h

CC[C@H](C)C[C@H](C)CCCCCCCCC(=O)N[C@H]1C[C@@H](O)[C@@H](NCCN)NC(=O)[C@@H]2[C@@H](O)CCN2C(=O)[C@H]([C@H](O)CCN)NC(=O)[C@H]([C@H](O)[C@@H](O)c2ccc(O)cc2)NC(=O)[C@@H]2C[C@@H](O)CN2C(=O)[C@H]([C@@H](C)O)NC1=O [Caspofungin]
Time of kill (time taken to kill 3 logs) (C. auris; final concn 16 mg/liter = 16× MIC): 6–24 h
Time of kill (time taken to kill 2 logs) (A. fumigatus conidia; final concn 2–32 mg/liter = 1–16× MIC): 48 h
Fold change in antifungal MIC at passage 30 (C. auris DSMZ1092): 1
Time of kill (time taken to kill 3 logs) (C. albicans; final concn 1 mg/liter = 4× MIC): 4 h
Fold change in antifungal MIC at passage 30 (C. glabrata AM2007/0125): 1
Cell destruction (lysis) seen by TEM (C. albicans AM2003-0182 [1]): not observed
Fold change in antifungal MIC at passage 30 [2]: 8
MIC (1× MIC, final concentration used for TEM) (C. albicans AM2003-0182 [3]): 0.5 µg/mL
Fold change in antifungal MIC at passage 30 (C. albicans SC5314): 4

N=C(N)NCCC[C@H](NC(=O)[C@H](CCCNC(=N)N)NC(=O)[C@@H](N)CCCNC(=N)N)C(=O)O [RRR] (H-Arg-Arg-Arg-OH)
MIC (C. albicans NCTC 3179): >2,048 μM

CC[C@@H]([C@H](C)O)n1ncn(-c2ccc(N3CCN(c4ccc(OC[C@@H]5CO[C@@](Cn6cncn6)(c6ccc(F)cc6F)C5)cc4)CC3)cc2)c1=O [Posaconazole]
Time of kill (time taken to kill 2 logs) (A. fumigatus conidia; final concn 4 mg/liter = 16× MIC): 24 h

human β-defensin 2 (GIGDPVTCLKSGAICHPVFCPRRYKQIGTCGLPGTKCCKKP; UniProt O15263 24-64, looked up) [endogenous human host defense peptide used as comparator in TEM]
Cell destruction (lysis) seen by TEM (C. albicans AM2003-0182 [1]): not observed
MIC (1× MIC, final concentration used for TEM) (C. albicans AM2003-0182 [3]): 25 µg/mL

N=C(N)NCCC[C@H](NC(=O)[C@H](CCCNC(=N)N)NC(=O)[C@H](CCCNC(=N)N)NC(=O)[C@H](CCCNC(=N)N)NC(=O)[C@H](CCCNC(=N)N)NC(=O)[C@H](CCCNC(=N)N)NC(=O)[C@H](CCCNC(=N)N)NC(=O)[C@H](CCCNC(=N)N)NC(=O)[C@@H](N)CCCNC(=N)N)C(=O)O
MIC (C. albicans NCTC 3179): 2,048 μM

N=C(N)NCCC[C@H](NC(=O)[C@H](CCCNC(=N)N)NC(=O)[C@H](CCCNC(=N)N)NC(=O)[C@H](CCCNC(=N)N)NC(=O)[C@H](CCCNC(=N)N)NC(=O)[C@H](CCCNC(=N)N)NC(=O)[C@H](CCCNC(=N)N)NC(=O)[C@H](CCCNC(=N)N)NC(=O)[C@H](CCCNC(=N)N)NC(=O)[C@H](CCCNC(=N)N)NC(=O)[C@@H](N)CCCNC(=N)N)C(=O)O
MIC (C. albicans NCTC 3179): 8 µM (≈ 13.9 µg/mL)

OC(Cn1cncn1)(Cn1cncn1)c1ccc(F)cc1F [Fluconazole]
Time of kill (time taken to kill 3 logs) (C. albicans; final concn 32 mg/liter = 32× MIC): 6 h

N=C(N)NCCC[C@H](NC(=O)[C@H](CCCNC(=N)N)NC(=O)[C@H](CCCNC(=N)N)NC(=O)[C@H](CCCNC(=N)N)NC(=O)[C@@H](N)CCCNC(=N)N)C(=O)O [RRRRR] (H-RRRRR-OH)
MIC (C. albicans NCTC 3179): >2,048 μM

N=C(N)NCCC[C@H](NC(=O)[C@H](CCCNC(=N)N)NC(=O)[C@H](CCCNC(=N)N)NC(=O)[C@H](CCCNC(=N)N)NC(=O)[C@H](CCCNC(=N)N)NC(=O)[C@H](CCCNC(=N)N)NC(=O)[C@@H](N)CCCNC(=N)N)C(=O)O [RRRRRRR]
MIC (C. albicans NCTC 3179): >2,048 μM

C[C@@H]1[C@H](O)[C@@H](C)/C=C/C=C/C=C/C=C/C=C/C=C/C=C/[C@H](O[C@@H]2O[C@H](C)[C@@H](O)[C@H](N)[C@@H]2O)C[C@@H]2O[C@](O)(C[C@@H](O)C[C@@H](O)[C@H](O)CC[C@@H](O)C[C@@H](O)CC(=O)O[C@H]1C)C[C@H](O)[C@H]2C(=O)O [Amphotericin B]
Time of kill (time taken to kill 3 logs) (C. auris; final concn 32 mg/liter = 16× MIC (amphotericin B)): 4 h
Time of kill (time taken to kill 2 logs) (A. fumigatus conidia; final concn 2–8 mg/liter = 4–16× MIC): 48 h
Fold change in antifungal MIC at passage 30 (C. auris DSMZ1092): 4
Fold change in antifungal MIC at passage 30 (C. glabrata AM2007/0125): 1
Fold change in antifungal MIC at passage 30 [2]: 4
Fold change in antifungal MIC at passage 30 (C. albicans SC5314): 4
